Data from ChEMBL document CHEMBL1201862, “PubChem BioAssay data set” (2004).
Activity calls are given as the source filed them. Non-standard residues stand in square brackets, D forms with d. Residues, ends and D or L forms follow the SMILES beside them. ξ: configuration not given here. ξLac(3-iPr) = CC(C)CC(O)C(=O)O; NMeV = CN[CH](C(=O)O)C(C)C; NMeA = CN[CH](C)C(=O)O; βAla = NCCC(=O)O

How the values were obtained:
[1] = biological target: 72 kDa type IV collagenase (Homo sapiens, UniProt P08253); experiment: Dose Response validation of uHTS RPN11 inhibitor hits using a MMP-2 Fluorescence assay.; assay type: functional
Chain of 72 kDa type IV collagenase (P08253 whole entry): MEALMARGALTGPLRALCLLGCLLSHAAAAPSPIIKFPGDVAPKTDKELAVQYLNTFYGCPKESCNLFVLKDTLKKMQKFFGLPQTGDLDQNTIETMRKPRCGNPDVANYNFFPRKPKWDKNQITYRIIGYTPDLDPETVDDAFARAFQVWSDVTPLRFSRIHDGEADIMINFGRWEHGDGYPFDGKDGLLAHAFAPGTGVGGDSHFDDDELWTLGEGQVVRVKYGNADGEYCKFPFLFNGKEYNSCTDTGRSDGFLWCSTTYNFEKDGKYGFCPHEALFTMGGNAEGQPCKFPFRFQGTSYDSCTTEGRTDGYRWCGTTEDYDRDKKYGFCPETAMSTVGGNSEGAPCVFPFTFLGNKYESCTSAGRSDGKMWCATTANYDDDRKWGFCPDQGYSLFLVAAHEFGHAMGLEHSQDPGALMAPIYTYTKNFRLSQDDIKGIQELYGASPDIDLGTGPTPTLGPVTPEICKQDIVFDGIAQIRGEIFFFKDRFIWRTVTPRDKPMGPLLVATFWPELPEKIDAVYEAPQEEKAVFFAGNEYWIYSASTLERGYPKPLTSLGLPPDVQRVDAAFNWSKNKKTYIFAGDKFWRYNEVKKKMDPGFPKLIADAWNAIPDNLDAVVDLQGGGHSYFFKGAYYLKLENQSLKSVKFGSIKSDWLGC

[2] = biological target: 26S proteasome non-ATPase regulatory subunit 14 (Homo sapiens, UniProt O00487); experiment: inhibition of proteasome subunit RPN11 – biochemical, fluorescence polarization, uHTS hits, confirmation (AID 602368); assay type: functional
Chain of 26S proteasome non-ATPase regulatory subunit 14 (O00487 whole entry): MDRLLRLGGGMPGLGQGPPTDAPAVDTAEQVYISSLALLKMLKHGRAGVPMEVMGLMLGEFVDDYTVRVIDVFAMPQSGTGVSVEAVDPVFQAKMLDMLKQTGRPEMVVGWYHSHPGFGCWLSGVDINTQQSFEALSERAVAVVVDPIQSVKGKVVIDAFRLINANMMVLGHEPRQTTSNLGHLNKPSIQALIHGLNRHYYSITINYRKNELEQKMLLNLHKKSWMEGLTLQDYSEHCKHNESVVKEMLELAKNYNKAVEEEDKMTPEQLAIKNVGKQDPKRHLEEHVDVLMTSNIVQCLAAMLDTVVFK

[3] = biological target: Prothrombin (Bos taurus, UniProt P00735); experiment: thrombin protease inhibitors – biochemical, fluorescence polarization, uHTS hits, dose response (AID 602369); assay type: functional
[4] = biological target: T1, High affinity choline transporter 1 (Homo sapiens, UniProt Q9GZV3); experiment: human choline transporter blockers, potency – cell-based, 5-point CRC, membrane potential dye, dose response (AID 504840); assay type: functional
T1 sequence (Q9GZV3 whole entry): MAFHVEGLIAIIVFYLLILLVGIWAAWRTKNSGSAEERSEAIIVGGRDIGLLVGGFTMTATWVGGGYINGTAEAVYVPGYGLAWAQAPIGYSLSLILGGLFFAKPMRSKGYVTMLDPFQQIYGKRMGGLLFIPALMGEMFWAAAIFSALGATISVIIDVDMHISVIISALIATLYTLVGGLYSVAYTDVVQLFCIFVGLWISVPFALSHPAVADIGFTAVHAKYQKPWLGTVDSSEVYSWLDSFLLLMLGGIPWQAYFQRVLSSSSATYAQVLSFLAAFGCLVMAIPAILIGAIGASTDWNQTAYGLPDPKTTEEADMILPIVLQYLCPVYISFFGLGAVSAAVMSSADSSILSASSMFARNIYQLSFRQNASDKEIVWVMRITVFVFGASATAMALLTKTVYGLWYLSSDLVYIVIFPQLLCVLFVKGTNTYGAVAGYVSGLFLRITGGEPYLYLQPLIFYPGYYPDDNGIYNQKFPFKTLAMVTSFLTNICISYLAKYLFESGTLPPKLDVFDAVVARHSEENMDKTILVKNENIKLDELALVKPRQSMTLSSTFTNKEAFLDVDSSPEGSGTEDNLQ

[5] = biological target: T2, Mannose-6-phosphate isomerase (Homo sapiens, UniProt P34949); experiment: MPI inhibition at elevated mannose 6-phosphate – biochemical, fluorescence intensity, high mannose 6-phosphate, primary screen (AID 1220)
T2 sequence (P34949 whole entry): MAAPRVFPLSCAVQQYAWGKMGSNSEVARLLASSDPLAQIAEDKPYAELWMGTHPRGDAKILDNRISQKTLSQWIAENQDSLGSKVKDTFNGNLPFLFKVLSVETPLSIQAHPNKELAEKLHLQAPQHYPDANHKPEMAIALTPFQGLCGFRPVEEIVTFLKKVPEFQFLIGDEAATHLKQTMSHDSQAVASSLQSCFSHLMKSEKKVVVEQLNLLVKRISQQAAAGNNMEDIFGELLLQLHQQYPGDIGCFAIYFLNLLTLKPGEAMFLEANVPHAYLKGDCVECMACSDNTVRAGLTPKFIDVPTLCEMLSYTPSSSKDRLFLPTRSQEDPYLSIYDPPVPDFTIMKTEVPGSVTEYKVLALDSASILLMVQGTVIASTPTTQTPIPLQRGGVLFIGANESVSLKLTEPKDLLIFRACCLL

[6] = biological target: T3, Rac GTPase-activating protein 1 (Homo sapiens, UniProt Q9H0H5); experiment: blockers of MgcRacGAP-driven Rac1 GTP hydrolysis – biochemical, ADP Hunter fluorescence, primary and confirmatory, confirmation (AID 624330); assay type: functional
T3 sequence (Q9H0H5 whole entry): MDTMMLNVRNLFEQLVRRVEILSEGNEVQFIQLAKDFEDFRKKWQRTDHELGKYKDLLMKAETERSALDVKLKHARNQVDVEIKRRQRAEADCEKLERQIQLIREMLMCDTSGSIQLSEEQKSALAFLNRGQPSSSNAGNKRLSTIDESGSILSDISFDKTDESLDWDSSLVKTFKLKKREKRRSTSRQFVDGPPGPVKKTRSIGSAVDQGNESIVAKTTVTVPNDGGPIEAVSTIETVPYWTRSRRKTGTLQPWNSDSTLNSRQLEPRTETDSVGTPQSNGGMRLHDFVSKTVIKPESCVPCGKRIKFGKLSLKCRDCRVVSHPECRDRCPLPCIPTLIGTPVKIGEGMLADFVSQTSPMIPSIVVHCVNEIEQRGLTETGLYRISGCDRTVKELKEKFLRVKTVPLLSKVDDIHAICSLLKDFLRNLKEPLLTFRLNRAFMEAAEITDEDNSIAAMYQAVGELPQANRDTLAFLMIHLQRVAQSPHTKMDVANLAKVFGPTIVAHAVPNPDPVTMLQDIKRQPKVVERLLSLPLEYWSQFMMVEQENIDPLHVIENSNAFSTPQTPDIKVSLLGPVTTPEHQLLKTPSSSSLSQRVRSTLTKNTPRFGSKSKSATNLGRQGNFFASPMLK

[7] = tested on: Escherichia coli; experiment: microbe, parasite or virus in culture
[8] = tested on: Escherichia coli; experiment: microbe, parasite or virus in culture; remark: listed apart in the source
[9] = reduction of Shn3 3'UTR-driven luciferase in osteoblasts – cell-based, Clone20 osteoblasts, firefly luciferase, cherry-picked, dose response (AID 624132); assay type: functional;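 note: firefly luciferase luminescence from reporter carrying the Shn3 3'UTR in osteoblasts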
[10] = loss of viability in HepG2 cells – cell-based, CellTiter-Glo, cherry-picked, cytotoxicity control for Shn3 inhibitor project, dose response (AID 624134); assay type: functional
[11] = non-specific 3'UTR reporter inhibition in Clone20-Shn3RL – cell-based, Renilla luciferase, cherry-picked, counter-screen for Shn3 inhibitor project, dose response (AID 624133); assay type: functional
[12] = biological target: Induced myeloid leukemia cell differentiation protein Mcl-1 (Homo sapiens, UniProt Q07820); assay type: functional
Chain of Induced myeloid leukemia cell differentiation protein Mcl-1 (Q07820 whole entry): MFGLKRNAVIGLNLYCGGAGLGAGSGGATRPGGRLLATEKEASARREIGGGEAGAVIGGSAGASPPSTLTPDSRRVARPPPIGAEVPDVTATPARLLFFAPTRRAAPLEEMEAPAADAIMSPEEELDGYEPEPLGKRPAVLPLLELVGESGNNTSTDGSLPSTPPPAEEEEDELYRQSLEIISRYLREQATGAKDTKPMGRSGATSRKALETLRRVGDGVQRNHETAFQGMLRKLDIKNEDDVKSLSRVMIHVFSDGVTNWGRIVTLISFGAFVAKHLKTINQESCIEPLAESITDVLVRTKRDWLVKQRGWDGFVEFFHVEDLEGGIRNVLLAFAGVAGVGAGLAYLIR

[13] = tested on: Vero; experiment: cells; assay type: functional, cell-based; conditions: Chlorocebus sabaeus
[14] = tested on: Vero; experiment: cells; assay type: functional; conditions: Chlorocebus sabaeus
[15] = tested on: INS1; experiment: suppression of NO production in INS-1E cells – cell-based, Griess absorbance, dry powder, dose response (AID 488866); assay type: functional; conditions: Rattus norvegicus
[16] = biological target: T4, DNA repair protein RAD52 homolog (Homo sapiens, UniProt P43351); assay type: functional, biochemical
T4 sequence (P43351 whole entry): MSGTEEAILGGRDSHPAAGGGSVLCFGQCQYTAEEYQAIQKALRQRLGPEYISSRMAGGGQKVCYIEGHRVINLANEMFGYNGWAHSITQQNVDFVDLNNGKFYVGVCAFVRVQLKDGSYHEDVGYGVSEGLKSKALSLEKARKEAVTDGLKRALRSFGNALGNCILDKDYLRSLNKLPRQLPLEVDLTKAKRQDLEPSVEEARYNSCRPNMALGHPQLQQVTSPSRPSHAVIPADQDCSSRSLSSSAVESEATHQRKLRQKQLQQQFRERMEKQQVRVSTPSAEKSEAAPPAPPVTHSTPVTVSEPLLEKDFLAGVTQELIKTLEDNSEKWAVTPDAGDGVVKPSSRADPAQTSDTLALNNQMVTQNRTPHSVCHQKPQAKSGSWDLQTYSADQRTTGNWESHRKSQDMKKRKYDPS

[17] = biological target: Delta-type opioid receptor (Homo sapiens, UniProt P41143); experiment: Counterscreen for agonists of heterodimerization of the mu 1 (OPRM1) and delta 1 (OPRD1) opioid receptors: Luminescence-based cell-based high throughput dose response assay to identify agonists of OPRD1 homodimerization. [Related pubchem assays (depositor defined):AID504326, AID504355, AID504692, AID504904, AID504905]; assay type: functional
Chain of Delta-type opioid receptor (P41143 whole entry): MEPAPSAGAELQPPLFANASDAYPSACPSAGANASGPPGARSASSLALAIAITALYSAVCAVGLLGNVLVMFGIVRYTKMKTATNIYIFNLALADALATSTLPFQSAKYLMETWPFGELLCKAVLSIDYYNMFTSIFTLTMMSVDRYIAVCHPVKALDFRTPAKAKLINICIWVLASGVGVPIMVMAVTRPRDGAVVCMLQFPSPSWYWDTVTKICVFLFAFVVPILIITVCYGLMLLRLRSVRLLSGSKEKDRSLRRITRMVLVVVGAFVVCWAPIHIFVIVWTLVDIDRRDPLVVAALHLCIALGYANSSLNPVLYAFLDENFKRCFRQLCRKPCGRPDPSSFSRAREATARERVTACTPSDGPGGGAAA

[18] = biological target: Mu-type opioid receptor (Homo sapiens, UniProt P35372); experiment: Counterscreen for agonists of heterodimerization of the mu 1 (OPRM1) and delta 1 (OPRD1) opioid receptors: Luminescence-based cell-based high throughput dose response assay to identify agonists of OPRM1 homodimerization.; assay type: functional;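 note: U2OS cells expressing OPRM1 and beta-arrestin as split beta-galactosidase partners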
Chain of Mu-type opioid receptor (P35372 whole entry): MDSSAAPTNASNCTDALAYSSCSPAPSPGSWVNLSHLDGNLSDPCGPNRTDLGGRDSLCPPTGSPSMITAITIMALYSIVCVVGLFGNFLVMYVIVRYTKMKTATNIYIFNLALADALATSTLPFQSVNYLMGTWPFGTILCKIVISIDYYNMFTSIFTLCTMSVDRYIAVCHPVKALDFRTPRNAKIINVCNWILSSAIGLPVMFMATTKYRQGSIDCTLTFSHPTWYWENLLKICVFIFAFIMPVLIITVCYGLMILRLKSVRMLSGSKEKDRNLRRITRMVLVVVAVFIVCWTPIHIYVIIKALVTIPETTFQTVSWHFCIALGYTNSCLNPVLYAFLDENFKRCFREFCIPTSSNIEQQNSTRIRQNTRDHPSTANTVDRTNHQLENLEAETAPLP

[19] = biological target: 5-hydroxytryptamine receptor 5A (Homo sapiens, UniProt P47898); experiment: Counterscreen for agonists of OPRM1-OPRD1 heterodimerization: luminescence-based cell-based high throughput dose response assay to identify agonists of 5-hydroxytryptamine (serotonin) 5A receptor (HTR5A). [Related pubchem assays (depositor defined):AID504326, AID504355, AID504692, AID504904, AID504905]; assay type: functional
Chain of 5-hydroxytryptamine receptor 5A (P47898 whole entry): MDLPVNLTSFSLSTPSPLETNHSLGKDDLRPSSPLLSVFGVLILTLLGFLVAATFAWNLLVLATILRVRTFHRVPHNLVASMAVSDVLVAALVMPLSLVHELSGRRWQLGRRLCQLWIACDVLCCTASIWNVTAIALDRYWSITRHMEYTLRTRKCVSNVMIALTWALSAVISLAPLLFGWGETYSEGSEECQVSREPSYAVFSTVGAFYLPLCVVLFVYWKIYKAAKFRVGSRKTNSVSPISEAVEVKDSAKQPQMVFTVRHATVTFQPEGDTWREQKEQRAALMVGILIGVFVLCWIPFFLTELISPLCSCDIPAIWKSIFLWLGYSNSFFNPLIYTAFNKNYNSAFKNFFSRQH

[20] = biological target: Cytochrome P450 3A4 (Homo sapiens, UniProt P08684); conditions: Potency;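 note: confirmatory qHTS run detecting inhibitors and substrates of CYP3A4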
Chain of Cytochrome P450 3A4 (P08684 whole entry): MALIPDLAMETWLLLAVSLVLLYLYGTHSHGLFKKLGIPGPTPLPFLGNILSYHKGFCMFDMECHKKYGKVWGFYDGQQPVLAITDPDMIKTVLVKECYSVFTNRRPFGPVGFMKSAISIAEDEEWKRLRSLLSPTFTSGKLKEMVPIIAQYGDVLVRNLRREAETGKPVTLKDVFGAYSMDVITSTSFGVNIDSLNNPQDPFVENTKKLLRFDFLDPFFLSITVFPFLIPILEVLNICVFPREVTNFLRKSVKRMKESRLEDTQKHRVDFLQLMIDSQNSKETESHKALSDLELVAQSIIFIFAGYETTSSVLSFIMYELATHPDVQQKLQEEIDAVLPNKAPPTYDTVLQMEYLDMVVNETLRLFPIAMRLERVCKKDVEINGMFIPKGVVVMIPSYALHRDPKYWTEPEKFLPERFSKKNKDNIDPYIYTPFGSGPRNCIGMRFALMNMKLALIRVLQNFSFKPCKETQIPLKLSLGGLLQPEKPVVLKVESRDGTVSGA

In the case of `Cc1sc2nc(CSc3nnc(Cc4cccs4)n3C3CCCCC3)[nH]c(=O)c2c1C`, the IC50 [1] is reported as > 100 µM (inactive), the IC50 [2] is reported as 15.5 µM (active) and the IC50 [3] is reported as 21.5 µM (active).

For `COc1cccc(CNc2ccc(N3CCCCC3)cc2)c1OC`, the IC50 [4] was 11.5 µM (active), the IC50 [5] was > 50 µM (not active) and the IC50 [6] was 5.96 µM (active).

In the case of `O=C(Nc1cccnc1)c1cccc(-c2cc3ccccc3oc2=O)c1`, the IC50 [1] is reported as > 100 µM (inactive), the IC50 [2] is reported as 9.88 µM (active) and the IC50 [3] is reported as 53.8 µM (active).

For `CCOc1cccc2sc(N(CCCN(C)C)C(=O)c3ccc(S(=O)(=O)N4CCCCCC4)cc3)nc12`, the AC50 [7] was > 380 µM (inactive) and the AC50 [8] was 19.6 µM (active).

For `Cc1ccc(-n2nnnc2-c2cnoc2-c2cccc(F)c2)cc1`, the AC50 [7] was 126 µM (active) and the AC50 [8] was 24.5 µM (active).

In the case of `CCN(CC)S(=O)(=O)c1cc(NC(=O)C2CCN(c3ncnc4sc(C)c(C)c34)CC2)ccc1Cl`, the AC50 [9] is reported as 5.08 µM (active), the AC50 [10] is reported as 7.1 µM (active) and the AC50 [11] is reported as 10.6 µM (active).

For `Cc1ccc(-c2nnc(N3CC(C)OC(C)C3)c3ccccc23)cc1` (stereo not drawn), the IC50 [4] was 17.4 µM (active).

With `CCN=c1ccc(Br)cc(C(=O)/C=C/c2ccc(Cl)cc2Cl)c1O` the IC50 [12] was 3.71 µM (active), the IC50 [13] was 11.6 µM (active) and the CC50 [14] was 11.1 µM (active).

With `Cc1ccc(C(=O)COC(=O)c2cc(O)nc3ccccc23)cc1C` the IC50 [1] was > 100 µM (inactive), the IC50 [2] was 22.3 µM (active) and the IC50 [3] was > 100 µM (inactive).

For `COc1ccccc1C1N(c2ccc(Cl)cc2)C(=O)C2CCCN21` (stereo not drawn), the IC50 [13] was > 25 µM (active).

With `CCN=C(S)NCCN1CCOCC1` the AC50 [8] was 24.7 µM (active).

In the case of `C[C@@H]1CN([C@@H](C)CO)C(=O)c2cccc(NC(=O)Nc3cccc4ccccc34)c2O[C@H]1CN(C)S(=O)(=O)c1ccc(-c2ccccc2)cc1`, the AC50 [15] is reported as > 195 µM (inactive).

For `COc1ccc(S(=O)(=O)N(C)C[C@@H]2Oc3c(NC(=O)Nc4cccc(C(F)(F)F)c4)cccc3C(=O)N([C@@H](C)CO)C[C@H]2C)cc1`, the AC50 [15] was 134 µM (active).

With `O=C1CCCC2=C1CC(C(=O)OCc1ccccc1)C(=O)N2Cc1ccccc1` (stereo not drawn) the AC50 [7] was 13.8 µM (active).

For `CC(=O)C1CCC2C3CC=C4CC(SC(=N)N)CCC4(C)C3CCC12C` (stereo not drawn), the AC50 [16] was 7.48 µM (active), the EC50 [17] was > 10.3 µM (inactive) and the EC50 [18] was > 92.4 µM (inactive). The EC50 [19] was > 92.4 µM (inactive).

With `CCC(C)C1NC(=O)C2CCCN2C(=O)C(CC(C)C)OC(=O)CCNC(=O)C(C)N(C)C(=O)C(C(C)C)N(C)C1=O` (stereo not drawn) (cyclo([ξLac(3-iPr)]PI[NMeV][NMeA][βAla]); configuration not given here) the IC50 [13] was 8.21 µM (active) and the CC50 [14] was > 25 µM (active).

In the case of `O=C(/C=C/c1ccc(O)c(O)c1)OCCc1ccccc1` [CAFFEIC ACID PHENETHYL ESTER], the AC50 [9] is reported as 0.877 µM (active), the AC50 [20] is reported as 31.6 µM (inconclusive) and the AC50 [10] is reported as > 70 µM (inactive). For the same molecule, the AC50 [11] was 1.11 µM (active).
